Reference: patent US7696208B2, “Therapeutic agents useful for treating pain” (Purdue Pharma L.P., priority 2003, dated 2010)

Assays:
[1] = biological target: T1, human VR1 (Homo sapiens, UniProt Q8NER1); experiment: pH-based assay (FLIPR calcium influx, inducible HEK293-EcR cells expressing human VR1); format: cell-based; details: agonist buffer giving pH 5.5, HEK293-EcR cells induced with 5 μM PonA, Fluo-4, FLIPR, n=5
T1 construct: expressed in transfected cells; host or cells: HEK293-EcR cells, expression induced with ponasterone A
T1 sequence (Q8NER1 whole entry): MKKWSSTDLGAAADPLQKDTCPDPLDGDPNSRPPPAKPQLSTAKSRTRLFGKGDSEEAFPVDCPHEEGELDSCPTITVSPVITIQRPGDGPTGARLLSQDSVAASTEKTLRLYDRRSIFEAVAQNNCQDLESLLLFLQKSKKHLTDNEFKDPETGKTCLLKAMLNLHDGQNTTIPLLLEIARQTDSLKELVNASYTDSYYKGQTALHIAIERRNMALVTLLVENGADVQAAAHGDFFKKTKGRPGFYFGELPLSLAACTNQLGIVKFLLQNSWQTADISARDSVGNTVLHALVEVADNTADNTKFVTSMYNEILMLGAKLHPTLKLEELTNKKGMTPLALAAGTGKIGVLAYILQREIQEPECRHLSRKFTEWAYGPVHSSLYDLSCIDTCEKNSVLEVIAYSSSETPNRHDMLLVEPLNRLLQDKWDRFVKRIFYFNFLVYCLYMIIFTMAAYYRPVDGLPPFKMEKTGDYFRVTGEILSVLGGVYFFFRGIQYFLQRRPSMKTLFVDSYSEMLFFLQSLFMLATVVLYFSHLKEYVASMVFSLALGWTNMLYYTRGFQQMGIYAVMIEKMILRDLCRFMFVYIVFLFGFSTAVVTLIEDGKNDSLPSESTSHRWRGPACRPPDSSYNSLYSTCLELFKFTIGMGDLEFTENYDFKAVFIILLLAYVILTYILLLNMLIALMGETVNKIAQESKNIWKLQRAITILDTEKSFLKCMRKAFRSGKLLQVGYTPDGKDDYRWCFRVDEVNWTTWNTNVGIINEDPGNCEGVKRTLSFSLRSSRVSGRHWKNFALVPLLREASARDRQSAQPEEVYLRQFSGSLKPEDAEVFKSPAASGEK
Protocol: (§1) Human VR1 Cloning: Human spinal cord RNA (commercially available from Clontech, Palo Alto, Calif.) was used. Reverse transcription was conducted on 1.0 μg total RNA using Thermoscript Reverse Transcriptase (commercially available from Invitrogen, Carlsbad, Calif.) and oligo dT primers as detailed in its product description. Reverse transcription reactions were incubated at 55° C. for 1 h, heat-inactivated at 85° C. for 5 min, and RNase H-treated at 37° C. for 20 min.
(§2) Human VR1 cDNA sequence was obtained by comparison of the human genomic sequence, prior to annotation, to the published rat sequence. Intron sequences were removed and flanking exonic sequences were joined to generate the hypothetical human cDNA. Primers flanking the coding region of human VR1 were designed as follows: forward primer, […]; and reverse primer, […]. […]
(§3) Generation of Inducible Cell Lines: Unless noted otherwise, cell culture reagents were purchased from Life Technologies of Rockville, Md. […] On the day of assay, cells were loaded with Fluo-4 (a calcium-sensitive dye that is commercially available from Molecular Probes, Eugene, Oreg.) and CAP-mediated calcium influx was measured using a FLIPR as described below. […]

[2] = biological target: T1, human VR1; experiment: Capsaicin-based assay (FLIPR calcium influx, inducible HEK293-EcR cells expressing human VR1); format: cell-based; details: activation by 50 μL of capsaicin (400 nM), HEK293-EcR cells induced with 5 μM PonA, Fluo-4, FLIPR, n=3
Protocol: as §1, §2, §3

IC50 [1]: 808 ± 254 nM
IC50 [2]: 382 ± 64.2 nM
Structure (SMILES): O=C(NCCc1ccccc1)N1CCN(c2ncccc2C(F)(F)F)CC1 [Compound A19]
